≈ marks a conversion by molar mass, not a printed value.
How the values were obtained:
[1] = tested on: Mycobacterium tuberculosis; test: Antibacterial activity against Mycobacterium tuberculosis; format: functional
[2] = Inhibition of Mycobacterium tuberculosis Zmp1
Candida [3] = test: Antibiofilm activity against Candida; format: functional
Chlamydia trachomatis = test: Bactericidal activity against Chlamydia trachomatis; format: functional
Cryptococcus neoformans = test: Antifungal activity against Cryptococcus neoformans; format: functional
Enterococcus faecalis [4] = test: Antibacterial activity against Enterococcus faecalis; format: functional
[5] = Inhibition of Aeromonas proteolytica aminopeptidase; design: species or system Vibrio proteolyticus
Aspergillus = test: Antifungal activity against Aspergillus; format: functional
Candida albicans [6] = test: Antibiofilm activity against Candida albicans; format: functional
Salmonella typhimurium [7] = test: Antibacterial activity against Salmonella typhimurium; format: functional, Salmonella enterica subsp. enterica serovar Typhimurium; conditions: Salmonella enterica
Candida albicans [8] = test: Antifungal activity against Candida albicans; format: functional
Bacillus subtilis [9] = test: Antibacterial activity against Bacillus subtilis; format: functional
Salmonella sp. = test: Antibacterial activity against Salmonella sp.; format: functional
[10] = Inhibition of Mycobacterium tuberculosis MetAP1c
[11] = Inhibition of Mycobacterium tuberculosis MetAP1a
Aspergillus niger = test: Antifungal activity against Aspergillus niger; format: functional
[12] = tested on: Achromobacter xylosoxidans; test: Antibacterial activity against Achromobacter xylosoxidans ATCC 2706; format: functional
Serratia marcescens = test: Antibacterial activity against Serratia marcescens ATCC 8100; format: functional
Listeria monocytogenes = test: Antibacterial activity against Listeria monocytogenes; format: functional
Salmonella typhimurium [13] = test: Antibacterial activity against Salmonella typhimurium ATCC 13311; format: functional, Salmonella enterica subsp. enterica serovar Typhimurium; conditions: Salmonella enterica
Staphylococcus aureus [14] = test: Antibacterial activity against Staphylococcus aureus ATCC 29213; format: functional
Klebsiella pneumoniae = test: Antibacterial activity against Klebsiella pneumoniae ATCC 700603; format: functional
Salmonella enteritidis = test: Antibacterial activity against Salmonella enteritidis; format: functional, Salmonella enterica subsp. enterica serovar Enteritidis; conditions: Salmonella enterica
Micrococcus luteus = test: Antibacterial activity against Micrococcus luteus ATCC 10240; format: functional
Plesiomonas shigelloides = test: Antibacterial activity against Plesiomonas shigelloides; format: functional
[15] = tested on: Staphylococcus epidermidis; test: Antibacterial activity against Staphylococcus epidermidis ATCC 12228; format: functional
Aeromonas hydrophila = test: Antibacterial activity against Aeromonas hydrophila; format: functional
Staphylococcus aureus [16] = test: Antibacterial activity against Staphylococcus aureus ATCC 25923; format: functional
[17] = molecular target: Methionine aminopeptidase 2 (Homo sapiens, UniProt P50579); test: Inhibition of human MetAP2
Escherichia coli = test: Antibacterial activity against Escherichia coli ATCC 25922; format: functional
Shigella dysenteriae = test: Antibacterial activity against Shigella dysenteriae; format: functional
Stutzerimonas stutzeri = test: Antibacterial activity against Pseudomonas stutzeri ATCC 17587; format: functional
Enterococcus faecalis [18] = test: Antibacterial activity against Enterococcus faecalis ATCC 29212; format: functional
Bacillus cereus = test: Antibacterial activity against Bacillus cereus; format: functional
Enterococcus faecalis [19] = test: Antibacterial activity against Enterococcus faecalis ATCC 33186; format: functional
Arthrodermataceae = test: […] activity against Arthrodermataceae; format: functional
Salmonella enterica = test: Antibacterial activity against Salmonella choleraesuis ATCC 10708; format: functional
Shewanella putrefaciens = test: Antibacterial activity against Shewanella putrefaciens ATCC 8071; format: functional
Candida [20] = test: Antifungal activity against Candida; format: functional
[21] = molecular target: Methionine aminopeptidase 1 (Homo sapiens, UniProt P53582); test: Inhibition of human MetAP1
[22] = tested on: Corynebacterium diphtheriae; test: Antibacterial activity against Corynebacterium diphtheriae NCTC 10356; format: functional
Bacillus subtilis [23] = test: Antibacterial activity against Bacillus subtilis ATCC 6633; format: functional
Citrobacter freundii = test: Antibacterial activity against Citrobacter freundii; format: functional
Morganella morganii = test: Antibacterial activity against Morganella morganii; format: functional

Sequence of Methionine aminopeptidase 2 (P50579 whole entry): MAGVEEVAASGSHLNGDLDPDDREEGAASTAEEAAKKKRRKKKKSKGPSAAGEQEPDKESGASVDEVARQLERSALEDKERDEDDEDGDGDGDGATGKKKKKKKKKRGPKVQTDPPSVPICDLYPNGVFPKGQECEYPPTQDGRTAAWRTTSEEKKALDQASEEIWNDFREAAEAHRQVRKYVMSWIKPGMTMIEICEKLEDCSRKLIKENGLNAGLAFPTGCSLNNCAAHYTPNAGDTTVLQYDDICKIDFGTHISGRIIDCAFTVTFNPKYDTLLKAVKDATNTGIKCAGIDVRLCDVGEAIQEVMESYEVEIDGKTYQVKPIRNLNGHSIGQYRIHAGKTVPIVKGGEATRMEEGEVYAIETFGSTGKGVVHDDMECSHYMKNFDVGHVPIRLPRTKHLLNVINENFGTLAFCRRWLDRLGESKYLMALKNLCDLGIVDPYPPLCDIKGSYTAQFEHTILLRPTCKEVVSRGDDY

## Cc1ccc2[nH]c(-c3ccccc3)c(C(NNC(=O)c3ccncc3)c3ccc4cccnc4c3O)c2c1 (configuration not stated)
[1]
  MIC: 100 µM (≈ 50 µg/mL)

## O=C(NCCCc1ccccc1)c1ccc2cccc(O)c2n1
[2]
  IC50: > 10 µM

## O=S(=O)(Nc1ccc(Cl)cc1)c1ccc(O)c2ncccc12
Candida [3]
  MIC: 3 µM (≈ 1 µg/mL)

## OC(COc1ccccc1)COc1cccc2cccnc12 (configuration not stated)
[1]
  MIC: 42.3 µM (≈ 12.5 µg/mL)

## O=C(NCCN1OCC(NC(=O)c2ccc3cccc(O)c3n2)C1=O)c1ccc2cccc(O)c2n1 (configuration not stated)
Chlamydia trachomatis
  MBC: 5 µM (≈ 2.44 µg/mL)

## Cc1ccc(S(=O)(=O)OCCn2cc(COc3cccc4cccnc34)nn2)cc1
Cryptococcus neoformans
  MIC80: 2.36 µM (≈ 1 µg/mL)

## O=C(CSc1nnc(COc2cccc3cccnc23)n1-c1ccccc1)Nc1nc2cc(F)ccc2s1
Enterococcus faecalis [4]
  MIC: 28.8 µM (≈ 15.6 µg/mL)

## Oc1cccc2ccc(/C=C/c3cccc(F)c3)nc12
[1]
  MIC: 13 µM (≈ 3.45 µg/mL)

## CNS(=O)(=O)c1cc(Cl)c2cccnc2c1O
[5]
  Ki: > 100 µM

## COc1ccc(CN2CCN(c3nc(Nc4ccc(C#N)cc4)nc(Oc4cccc5cccnc45)n3)CC2)c(OC)c1OC
Aspergillus
  MIC: 9.8 µM (≈ 5.93 µg/mL)

## CC(=O)Oc1c(Br)cc(Br)c2ccc(C)nc12
Candida albicans [6]
  MIC: 12.5 µM (≈ 4.49 µg/mL)

## O=C(CSc1nnc(COc2cccc3cccnc23)n1-c1ccccc1)Nc1nc2cc([N+](=O)[O-])ccc2s1
Enterococcus faecalis [4]
  MIC: 27.4 µM (≈ 15.6 µg/mL)
Salmonella typhimurium [7]
  MIC: 13.7 µM (≈ 7.8 µg/mL)

## N#Cc1ccc(Nc2nc(Oc3cccc4cccnc34)nc(N3CCN(c4ccccn4)CC3)n2)cc1C(F)(F)F
Candida albicans [8]
  MIC: 9.8 µM (≈ 5.58 µg/mL)
[1]
  MIC: 439 µM (≈ 250 µg/mL)

## O=C(NNC(c1ccc2cccnc2c1O)c1c(-c2ccccc2)[nH]c2ccccc12)c1ccncc1 (configuration not stated)
[1]
  MIC: 103 µM (≈ 50 µg/mL)

## O=C(NCCc1ccccc1)c1ccc2cccc(O)c2n1
[2]
  IC50: > 10 µM

## N#Cc1ccc(Nc2nc(Oc3cccc4cccnc34)nc(N3CCN(c4cccc(Cl)c4Cl)CC3)n2)cc1C(F)(F)F
Aspergillus
  MIC: 9.8 µM (≈ 6.25 µg/mL)
[1]
  MIC: 19.6 µM (≈ 12.5 µg/mL)

## O=C(NNC(c1ccc2cccnc2c1O)c1c(-c2ccccc2)[nH]c2ccc(Cl)cc12)c1ccncc1 (configuration not stated)
[1]
  MIC: 24 µM (≈ 12.5 µg/mL)

## C=CCONC(=O)c1ccc2cccc(O)c2n1
[2]
  IC50: 0.123 µM

## CONC(=O)c1ccc2cccc(O)c2n1
[2]
  IC50: 0.115 µM

## O=C(NNC(c1ccc2cccnc2c1O)c1c[nH]c2ccccc12)c1ccncc1 (configuration not stated)
[1]
  MIC: 122 µM (≈ 50 µg/mL)

## CC1CC(C)CN(c2nc(Nc3ccc(C#N)c(C(F)(F)F)c3)nc(Oc3cccc4cccnc34)n2)C1 (configuration not stated)
[1]
  MIC: 6 µM (≈ 3.12 µg/mL)

## Cc1nc2[nH]nc(/N=N/c3ccc(O)c4ncccc34)c2c(C)c1Br
Bacillus subtilis [9]
  MIC: 19.7 µM (≈ 7.81 µg/mL)
Salmonella sp.
  MIC: 4.91 µM (≈ 1.95 µg/mL)

## CNc1ccc2cccc(O)c2n1
[1]
  MIC: 6.4 µM (≈ 1.11 µg/mL)

## O=C(O)c1cn(C2CC2)c2cc(N3CCN(C(=O)c4ccc5cccc(O)c5n4)CC3)c(F)cc2c1=O
Chlamydia trachomatis
  MBC: 5 µM (≈ 2.51 µg/mL)

## CC(=O)Oc1c(Cl)cc(Cl)c2cccnc12
[10]
  IC50: 4.92 µM
[11]
  IC50: 4.87 µM

## Cc1ccccc1OCC(O)COc1cccc2cccnc12 (configuration not stated)
[1]
  MIC: 23.3 µM (≈ 7.21 µg/mL)

## OC(COc1ccc(Cl)cc1)COc1cccc2cccnc12 (configuration not stated)
[1]
  MIC: 9.85 µM (≈ 3.25 µg/mL)

## O=C(NCCO[C@@H]1O[C@H](CO)[C@@H](O)[C@H](O)[C@H]1O)c1ccc2cccnc2c1O
Candida albicans [8]
  MIC: 10000 µM (≈ 3940 µg/mL)

## O=C(NCCO[C@H]1O[C@H](CO)[C@@H](O)[C@H](O)[C@@H]1O)c1ccc(O)c2ncccc12
Candida albicans [8]
  MIC: 5000 µM (≈ 1970 µg/mL)

## Brc1cccc(COc2cccc3cccnc23)c1
Aspergillus niger
  MIC: 9.94 µM (≈ 3.12 µg/mL)

## Cc1ccc2cccc(O)c2n1 [8-HYDROXY QUINALDINE]
[5]
  Ki: > 100 µM

## O=C(O)c1cn(C2CC2)c2cc(N3CCNCC3)c(F)cc2c1=O [CIPROFLOXACIN]
Chlamydia trachomatis
  MBC: > 50 µM

## Oc1c(I)cc(Cl)c2cccnc12 [CLIOQUINOL]
[12]
  MIC: > 26.2 µM
Serratia marcescens
  MIC: > 26.2 µM
[10]
  IC50: 11.2 µM
Listeria monocytogenes
  MIC: 26.2 µM (≈ 8 µg/mL)
Salmonella typhimurium [13]
  MIC: > 26.2 µM
Staphylococcus aureus [14]
  MIC: 26.2 µM (≈ 8 µg/mL)
Klebsiella pneumoniae
  MIC: > 26.2 µM
Salmonella enteritidis
  MIC: > 26.2 µM
Micrococcus luteus
  MIC: 26.2 µM (≈ 8 µg/mL)
Plesiomonas shigelloides
  MIC: > 26.2 µM
[15]
  MIC: 26.2 µM (≈ 8 µg/mL)
Aeromonas hydrophila
  MIC: > 26.2 µM
Staphylococcus aureus [16]
  MIC: 26.2 µM (≈ 8 µg/mL)
[17]
  IC50: 80.4 µM
[5]
  Ki: > 100 µM
Escherichia coli
  MIC: > 26.2 µM
Shigella dysenteriae
  MIC: > 26.2 µM
Stutzerimonas stutzeri
  MIC: > 26.2 µM
Enterococcus faecalis [18]
  MIC: 26.2 µM (≈ 8 µg/mL)
Bacillus cereus
  MIC: 26.2 µM (≈ 8 µg/mL)
Enterococcus faecalis [19]
  MIC: 26.2 µM (≈ 8 µg/mL)
[1]
  MIC: 32.7 µM (≈ 10 µg/mL)
Arthrodermataceae
  MIC: 0.409 µM (≈ 0.125 µg/mL)
Salmonella enterica
  MIC: > 26.2 µM
[11]
  IC50: 9.25 µM
Shewanella putrefaciens
  MIC: > 26.2 µM
Candida [20]
  MIC: 0.206 µM (≈ 0.0629 µg/mL)
[21]
  IC50: 84.7 µM
[22]
  MIC: 26.2 µM (≈ 8 µg/mL)
Bacillus subtilis [23]
  MIC: 26.2 µM (≈ 8 µg/mL)
Citrobacter freundii
  MIC: > 26.2 µM
Morganella morganii
  MIC: > 26.2 µM

## Oc1ccc(Cl)c2cccnc12 [CLOXYQUIN]
[5]
  Ki: 0.16 µM

## O=[N+]([O-])c1ccc(O)c2ncccc12 [NITROXOLINE]
[5]
  IC50: 29 µM

## Oc1cccc2cccnc12 [OXYQUINOLINE]
[5]
  Ki: 0.58 µM
